Values of other authors, collected in patent US20210338693A1, “Gel Compositions for Transdermal Delivery to Maximize Drug Concentrations in the Stratum Corneum and Serum and Methods of Use Thereof” (Viramal Limited, priority 2016, published 2021).

Settings: in vivo

In the case of `C[C@]12CC[C@H]3[C@@H](CCC4=CC(=O)CC[C@@]43C)[C@@H]1CC[C@@H]2O` [Testosterone], the half-life is listed as 1.4 h.
